Results on 9 compounds are retold here after BindingDB's records for doi:10.1021/jm0613469 (Uppsala University, 2007).

Residues, ends and D or L forms follow the SMILES beside them.

This assay concerns the target Type-2 angiotensin II receptor (Sus scrofa). The assay is described as follows: Displacement of [125I]Ang2 from AT2 receptor in pig uterus myometrial membrane. In general terms: In a radioligand displacement assay an active substance lowers the binding of a labelled ligand.
As for `CC[C@H](C)[C@H](NC(=O)[C@@H]1CCCN1C(=O)[C@@H](N)Cc1cnc[nH]1)C(=O)O` [(2S,3R)-2-((S)-1-((S)-2-amino-3-(1H-imidazol-5-yl)propanoyl)pyrrolidine-2-carboxamido)-3-methylpentanoic acid] (H-His-Pro-Ile-OH), the Ki (usually the equilibrium dissociation constant of an inhibitor or competing ligand from its target) is > 10 µM. Under `O=C(O)[C@H](Cc1ccccc1)NC(=O)[C@@H]1CCCN1C(=O)c1cccc(Cn2ccnc2)c1` [(S)-2-((S)-1-(3-((1H-imidazol-1-yl)methyl)benzoyl)pyrrolidine-2-carboxamido)-3-phenylpropanoic acid] stands > 10 µM; under `O=C(N[C@@H](Cc1ccccc1)C(=O)O)c1cccc(Cn2ccnc2)c1` [(S)-2-(3-((1H-imidazol-1-yl)methyl)benzamido)-3-phenylpropanoic acid], 0.0375 µM; under `N[C@@H](Cc1cnc[nH]1)C(=O)N1CCC[C@H]1C(=O)N[C@@H](Cc1ccccc1)C(=O)O` [(S)-2-((S)-1-((S)-2-amino-3-(1H-imidazol-5-yl)propanoyl)pyrrolidine-2-carboxamido)-3-phenylpropanoic acid] (H-His-Pro-Phe-OH), > 10 µM.

`CC[C@@H](C)[C@H](NC(=O)[C@@H]1CCCN1C(=O)c1cccc(Cn2ccnc2)c1)C(=O)O` [(2S,3R)-2-((S)-1-(3-((1H-imidazol-1-yl)methyl)benzoyl)pyrrolidine-2-carboxamido)-3-methylpentanoic acid]: the Ki was > 10 µM. `CC[C@@H](C)[C@H](NC(=O)c1cccc(Cn2ccnc2)c1)C(=O)O` [(2S,3R)-2-(3-((1H-imidazol-1-yl)methyl)benzamido)-3-methylpentanoic acid] registered an inhibition constant (Ki) of 0.0166 µM. Under `O=C(O)[C@H](Cc1ccccc1)NC(=O)[C@@H]1CCCN1C(=O)c1cccc(Cc2cnc[nH]2)c1` [(S)-2-((S)-1-(3-((1H-imidazol-5-yl)methyl)benzoyl)pyrrolidine-2-carboxamido)-3-phenylpropanoic acid] stands > 10 µM; under `CC[C@@H](C)[C@H](NC(=O)[C@@H]1CCCN1C(=O)c1cccc(Cc2cnc[nH]2)c1)C(=O)O` [(2S,3R)-2-((S)-1-(3-((1H-imidazol-5-yl)methyl)benzoyl)pyrrolidine-2-carboxamido)-3-methylpentanoic acid], > 10 µM.

For `CC(=O)N[C@@H](Cc1cnc[nH]1)C(=O)N1CCC[C@H]1C(=O)N[C@@H](Cc1ccccc1)C(=O)O` [(S)-2-((S)-1-((S)-2-acetamido-3-(1H-imidazol-5-yl)propanoyl)pyrrolidine-2-carboxamido)-3-phenylpropanoic acid] (Ac-His-Pro-Phe-OH), the Ki was > 10 µM.
